# Laboratory results taken from EP0672419A1, “BLOOD PRESSURE REGULATOR” (Asahi Kasei Kogyo Kabushiki Kaisha, priority 1991, dated 1995).
# Tested on: adult mongrel dogs
# Assay: Phenylephrine-induced hypertension in four anesthetized dogs (Example 8)
# Assay type: in vivo, dog
# Conditions: after administ. of phenylephrine 10 min.; 10 µg/kg/min, before CGRP
# Description: Example 6 was repeated by substantially almost same manner using four adult mongrel dogs, mean body weight 12.3±3.0 kg, applying same anesthetic condition. After setting up the experiment at more than 60 minutes passing and confirming to stabilize the depth of anesthesia and blood flow, phenylephrine (hypertensor) 10 µg/kg/min was administered.
# Further after 10 minutes passed, the active ingredient, desalanyl-deamino-c-CGRP 10 µg/kg/hr was administered and at 10 min. and 20 min. after administration of the active ingredient, heart rate (HR) and mean a artery pressure (MAP) were measured.
smiles,measurement,value
CNC[C@H](O)c1cccc(O)c1 [phenylephrine],HR: Heart rate,138.0±9.3 beat/min
same,MAP: Mean artery pressure,159.0±6.2 mmHg
